Consider one compound from US7122173B2, “Agent for the treatment of bladder irritative symptoms accompanied by benign prostatic hyperplasia” (Kyowa Hakko Kogyo Co., Ltd., priority 2001, dated 2006).

The test system of this experiment is rats with partial urethra obstruction. In words: Bladder capacity in rats with partial outlet obstruction (cystometry). It counts as in vivo, rat. Conditions: oral. As for the experimental part:
The test was carried out in accordance with the method of Saito et al. (J. Urol., 150: 1145–1151 (1993)). Male SD rats of 8 to 9 weeks of age (supplied by Japan SLC) were used in the test. Five to seven animals of these rats were put in each metal cage and reared by allowing them to freely take commercially available chow and water, in a rearing room at a room temperature of from 19 to 25° C. and a humidity of from 30 to 70% under illumination for 12 hours (from 7 a.m. to 7 p.m.) per day. Partial urethra obstruction was induced in rats, as a model of urethral obstruction mimicking BPH. Each rat was anesthetized by intraperitoneal administration of 50 mg/kg of pentobarbital sodium (Dainippon Pharmaceutical) and placed in dorsal position. The abdomen was cut in a length of about 1 cm by median incision to expose the bladder, prostate and the urethra. The bladder neck and bladder base were peeled from the prostate, and two surgical sutures (No. 3, Natsume Seisakusho) were passed behind the urethra base. A polyethylene tube (PE-200; Becton Dickinson) was placed along the urethra, and the urethra was mildly double-ligated together with the tube. The ligation was carried out in such a manner that the urethra was not pressed by the polyethylene tube and the sutures were not loosened. The polyethylene tube was pulled out and the urethra was constricted. On the same day of the above surgery, bladder catheter indwelling operation was carried out. The bladder was exposed, and a polyethylene tube (PE-50; Becton Dickinson) was inserted from the bladder top and fixed with a surgical suture. The other end was exposed subcutaneously from the back neck, plugged and then fixed to the skin with the surgical suture. The bladder was returned to the original position and the abdomen was sutured with the surgical suture. Five to seven days after the urethra obstruction and catheter indwelling operations, the rats with partial urethra obstruction and those subjected to sham-operation were put in Ballman cages (KN-326-1, Natsume Seisakusho) under the restricted state, and a three-way cock was connected to the bladder catheter. A pressure transducer (DX-360; Nihon Kohden) was connected to one end of the three-way cock, and the intravesical pressure signal was amplified via a strain pressure amplifier (AP-601G; Nihon Kohden), measured by a polygraph (RPM-6008; Nihon Kohden) and recorded on a thermal array recorder (RTA-1200; Nihon Kohden). A syringe filled with physiological saline (Otsuka Pharmaceutical Industries, Tokushima, Japan) was connected to the other end of the three-way cock and fixed to an infusion pump (KDS 220; Neuroscience). An FD pickup (TB-611T; Nihon Kohden) equipped with a cup was placed on the downside of the Ballman cage and connected to the strain gauge pressure amplifier, and the micturition volume was recorded on the thermal array recorder as the tension change. After the completion of the preparation, physiological saline kept at room temperature was continuously injected into the bladder at a flow rate of 6 mL/h for about 30 minutes, and the animals periodically expressing micturition contraction were used in the test. After they are allowed to stand for 30 to 60 minutes, residual urine was manually expressed by finger pressure. Five minutes thereafter, the injection of physiological saline into the bladder was started again, and the injection was immediately stopped when micturition was observed. The bladder capacity was calculated from the period of time until expression of micturition (injection rate 6 mL/h×injection period). The residual urine volume was calculated by subtracting the micturition volume at the time of bladder contraction (voided volume per micturition) from the bladder capacity. By repeating 30 minutes of bladder injection of physiological saline 2 to 3 times, respective values were measured and used as the test compound or solvent pre-administration values. […]

Setting [1] is: before administration (baseline of the Compound 1 group).
[2] abbreviates: rats with partial urethra obstruction.

Structures are written as SMILES.

Under “1 h after administration”, `C[C@](O)(C(=O)Nc1cccc2c1C(=O)c1sccc1CS2(=O)=O)C(F)(F)F` [Compound 1, (S)-(+)-N-(5,5-dioxido-10-oxo-4,10-dihydrothieno[3,2-c][1]benzothiepin-9-yl)-3,3,3-trifluoro-2-hydroxy-2-methylpropanamide] had a Bladder capacity of 0.54 ± 0.08 mL, a Residual urine volume of 0.18 ± 0.07 mL and a micturition volume of 0.36 ± 0.07 mL. Further, under “2 h after administration”, the Bladder capacity came out at 0.46 ± 0.07 mL, the Residual urine volume was 0.10 ± 0.05 mL and the micturition volume stood at 0.36 ± 0.07 mL. In addition, for the setting “3 h after administration”, the Bladder capacity worked out at 0.44 ± 0.07 mL, the Residual urine volume was 0.18 ± 0.07 mL and the micturition volume is reported as 0.27 ± 0.01 mL. Also, under setting [1], the Bladder capacity came out at 0.40 ± 0.04 mL, the Residual urine volume was determined as 0.15 ± 0.02 mL and the micturition volume turned out to be 0.25 ± 0.04 mL. For the same compound, under setting [2], the “Effect on bladder capacity (in words)” value is on record as “tended to increase bladder capacity” and the “Effect on micturition volume (in words)” value is given as “significantly increased micturition volume”.
